Experimental data reported in patent US5023264A, “Rapamycin oximes” (American Home Products Corporation, priority 1990, dated 1991).
Values after ≈ are worked out from the molar mass of the structure shown.

How the values were obtained:
transplant rejection = conditions: cited from earlier work
[1] = tested on: pinch skin graft rejection; experiment: Survival time of pinch skin graft; assay type: in vivo, mouse (male DBA/2 donors, male BALB/c recipients); conditions: for Skin Graft survival (days + SD): intraperitoneally, mean graft survival time ± S.D.
Method: (§1) Immunosuppressive activity was evaluated in an in vitro standard pharmacological test procedure to measure lymphocyte proliferation (LAF) and in two in vivo standard pharmacological test procedures. The first in vivo procedure was a popliteal lymph node (PLN) test procedure which measured the effect of compounds of this invention on a mixed lymphocyte reaction and the second in vivo procedure evaluated the survival time of a pinch skin graft.
The second in vivo test procedure is designed to determine the survival time of pinch skin graft from male DBA/2 donors transplanted to male BALB/c recipients. The method is adapted from Billingham R. E. and Medawar P. B., J. Exp. Biol. 28:385-(402), 1951. Briefly, a pinch skin graft from the donor is grafted on the dorsum of the recipient as a homograft, and an autograft is used as control in the same region. […] Untreated recipients serve as rejection control. The graft is monitored daily and observations are recorded until the graft becomes dry and forms a blackened scab. This is considered as the rejection day. The mean graft survival time (number of days±S.D.) of the drug treatment group is compared with the control group.
(§2) Transplanted pinch skin grafts are typically rejected within 6-7 days without the use of an immunosuppressive agent. […] (see, I. Roitt et al. Immunology, C. V. Moseby Co. 1989, p 12.8-12.11).

[2] = tested on: experimental allergic encephalomyelitis, a model for multiple sclerosis; conditions: cited from earlier work
Candida albicans = conditions: particularly against Candida albicans, in vitro and in vivo; cited from earlier work
IGE-like antibodies = conditions: in vivo; cited from earlier work
[3] = tested on: Candida albicans ATCC 38248; experiment: Antifungal plate test, MIC, strain ATCC 38248; assay type: cell-based; conditions: plate disk test
Method: (§3) The following represents the typical procedure used. Compound to be tested was placed on sterile dried 1/4" plate disks, and allowed to dry. Agar plates were seeded with fungi and allowed to solidify. The impregnated disks were placed on the seeded Agar surface and incubated for the time required for the particular culture. Results are expressed in MIC (μg/ml) to inhibit growth.

[4] = tested on: thymocyte (lymphocyte) proliferation; experiment: Comitogen-induced thymocyte proliferation procedure (LAF); assay type: cell-based; conditions: in vitro, thymus cells of BALB/c mice, PHA and IL-1, 72 hours; ratio calculated as described (rapamycin 1.0)
Method: as §1
(§4) Briefly, cells from the thymus of normal BALB/c mice are cultured for 72 hours with PHA and IL-1 and pulsed with tritiated thymidine during the last six hours. […] Cells are harvested and incorporated; radioactivity is determined. Inhibition of lymphoproliferation is assessed in percent change in counts per minute from non-drug treated controls. The results are expressed by the following ratio: [formula]
(§5) *Calculation of ratios was described supra.
as §2

[5] = tested on: Candida albicans ATCC 10231; experiment: Antifungal plate test, MIC, strain ATCC 10231; assay type: cell-based; conditions: plate disk test
Method: as §3

[6] = tested on: Candida albicans ATCC 38246; experiment: Antifungal plate test, MIC, strain ATCC 38246; assay type: cell-based; conditions: plate disk test
Method: as §3

Candida albicans 3669 = experiment: Antifungal plate test, MIC, strain 3669; assay type: cell-based; conditions: plate disk test
Method: as §3

[7] = tested on: Candida albicans ATCC 38247; experiment: Antifungal plate test, MIC, strain ATCC 38247; assay type: cell-based; conditions: plate disk test
Method: as §3

[8] = tested on: immunosuppressive activity; experiment: Standard pharmacological test procedures described supra (isomers of Example 1; overall immunosuppressive activity); parameters: species or system mouse; conditions: results not presented for the inactive isomer
Method: as §1, §4
A mixed lymphocyte reaction (MLR) occurs when lymphoid cells from genetically distinct animals are combined in tissue culture. Each stimulates the other to undergo blast transformation which results in increased DNA synthesis that can be quantified by the incorporation of tritiated thymidine. […] On Day 3 and Day 4, tritiated thymidine is given i.p., b.i.d. On Day 5, the hind popliteal lymph nodes are removed and dissolved, and radioactivity counted. […] Percent suppression is calculated using the non-drug treated animals as allogenic control. […]

[9] = tested on: mixed lymphocyte reaction in popliteal lymph node (host vs. graft); experiment: Popliteal lymph node (PLN) test procedure, in vivo mixed lymphocyte reaction; parameters: species or system mouse (BALB/c donors, C3H recipients); conditions: for PLN (ratio): p.o. daily Day 0 to Day 4, ratio calculated as described (rapamycin 1.0)
Method: as §1
A mixed lymphocyte reaction (MLR) occurs when lymphoid cells from genetically distinct animals are combined in tissue culture. Each stimulates the other to undergo blast transformation which results in increased DNA synthesis that can be quantified by the incorporation of tritiated thymidine. Since stimulating a MLR is a function of disparity at Major Histocompatibility antigens, an in vivo popliteal lymph node (PLN) test procedure closely correlates to host vs. graft disease. Briefly, irradiated spleen cells from BALB/c donors are injected into the right hind foot pad of recipient C3H mice. The drug is given daily, p.o. from Day 0 to Day 4. On Day 3 and Day 4, tritiated thymidine is given i.p., b.i.d. On Day 5, the hind popliteal lymph nodes are removed and dissolved, and radioactivity counted. The corresponding left PLN serves as the control for the PLN from the injected hind foot. Percent suppression is calculated using the non-drug treated animals as allogenic control. […] Results are expressed by the following ratio: [formula]
as §5, §2

| Compound | Immunosuppressive effect / inhibition of transplant rejection (transplant rejection) | Skin Graft survival (days + SD) [1] | MIC [3] | LAF (ratio) [4] | MIC [5] | MIC [6] | MIC (Candida albicans 3669) | MIC [7] | also measured |
| --- | --- | --- | --- | --- | --- | --- | --- | --- | --- |
| CO[C@H]1C[C@@H]2CC[C@@H](C)[C@@](O)(O2)C(=O)C(=O)N2CCCC[C@H]2C(=O)O[C@H]([C@H](C)C[C@@H]2CC[C@@H](O)[C@H](OC)C2)CC(=O)[C@H](C)/C=C(\C)[C@@H](O)[C@@H](OC)C(=O)[C@H](C)C[C@H](C)/C=C/C=C/C=C/1C [Rapamycin] | effective in inhibiting transplant rejection | 12.0 ± 1.7 days |  |  |  |  |  |  | Effect in experimental allergic encephalomyelitis model [2]: effective in the experimental allergic encephalomyelitis model; Antifungal activity (Candida albicans): antifungal activity, particularly against Candida albicans, both in vitro and in vivo; Inhibition of formation of IGE-like antibodies (IGE-like antibodies): effectively inhibited the formation of IGE-like antibodies |
| cyclosporin A | effective as immunosuppressive agents |  |  |  |  |  |  |  |  |
| C=CC[C@@H]1/C=C(\C)C[C@H](C)C[C@H](OC)[C@H]2O[C@@](O)(C(=O)C(=O)N3CCCC[C@H]3C(=O)O[C@H](/C(C)=C/[C@@H]3CC[C@@H](O)[C@H](OC)C3)[C@H](C)[C@@H](O)CC1=O)[C@H](C)C[C@@H]2OC [FK-506] | effective as immunosuppressive agents |  |  |  |  |  |  |  |  |
| CON=C1[C@H](C)C[C@H](C)/C=C/C=C/C=C(\C)[C@@H](OC)C[C@@H]2CC[C@@H](C)[C@@](O)(O2)C(=O)C(=O)N2CCCC[C@H]2C(=O)O[C@H]([C@H](C)C[C@@H]2CC[C@@H](O)[C@H](OC)C2)CC(=O)[C@H](C)/C=C(\C)[C@@H](O)[C@H]1OC [Example 3, Rapamycin-O-methyl-27-oxime] |  | 9.5 ± 1.4 days | 0.05 µg/mL (≈ 0.053 µM) | 0.007 | 0.2 µg/mL (≈ 0.212 µM) | 0.05 µg/mL (≈ 0.053 µM) | 0.2 µg/mL (≈ 0.212 µM) | 0.2 µg/mL (≈ 0.212 µM) |  |
| CO[C@H]1C[C@@H]2CC[C@@H](C)[C@@](O)(O2)C(=O)C(=O)N2CCCC[C@H]2C(=O)O[C@H]([C@H](C)C[C@@H]2CC[C@@H](O)[C@H](OC)C2)CC(=O)[C@H](C)/C=C(\C)[C@@H](O)[C@@H](OC)C(=NO)[C@H](C)C[C@H](C)/C=C/C=C/C=C/1C (single isomer, unassigned) [isomerically pure mono-oxime, Rapamycin-27-oxime] |  |  |  |  |  |  |  |  | Biological activity of the isomers of Example 1 [8]: biologically inactive |
| CO[C@H]1C[C@@H]2CC[C@@H](C)[C@@](O)(O2)C(=O)C(=O)N2CCCC[C@H]2C(=O)O[C@H]([C@H](C)C[C@@H]2CC[C@@H](O)[C@H](OC)C2)CC(=O)[C@H](C)/C=C(\C)[C@@H](O)[C@@H](OC)C(=NOCc2ccccc2)[C@H](C)C[C@H](C)/C=C/C=C/C=C/1C [Example 2, Rapamycin-O-benzyl-27-oxime] |  | 9.3 ± 1.4 days | > 0.4 µg/mL | 0.87 | > 0.4 µg/mL | > 0.4 µg/mL | > 0.4 µg/mL | > 0.4 µg/mL | PLN (ratio) [9]: 1.39 |
| Rapamycin-27-oxime [Example 1] |  | 10.0 ± 1.6 days | 0.1 µg/mL | 0.25 | 0.05 µg/mL | 0.2 µg/mL | 0.2 µg/mL | 0.05 µg/mL | T cell proliferation in the PLN test procedure (in words) ([9]; from negative PLN ratio): may cause T cell proliferation in the PLN test procedure; PLN (ratio) [9]: -1.40; Biological activity of the isomers of Example 1 [8]: active in the assays described supra; Skin graft survival time (in words) ([1]; compared with grafts without immunosuppressive agent, rejected within 6-7 days): increased survival time observed in the skin graft test procedure |
